Laboratory results taken from paper PMC8301776, “New Hybrid Compounds Combining Fragments of Usnic Acid and Monoterpenoids for Effective Tyrosyl-DNA Phosphodiesterase 1 Inhibition” (Biomolecules, 2021).
“Also recorded” adds a separate entry of the source.

Assays:
Lewis lung carcinoma = details: mice with Lewis lung carcinoma; various administration schedules; cited from earlier work
HEK293A TDP1-/- cells = experiment: Topotecan cytotoxicity alone or in combination, colorimetric test, HEK293A TDP1-/- clones C6, G6, F7; type: cell-based, human; details: for effect on cell growth in combination with Tpc, compared to Tpc (in words): HEK293A Tdp1-/- cells
From the text: TDP1 knockout HEK293A clones were obtained in the same way as the previously described TDP1 knockout HEK293FT clones. Briefly, two 20-nt protospacer sequences flanking the first protein coding exon of human TDP1 gene were selected using https://www.benchling.com/ (accessed date 1 November 2020). Oligonucleotides were cloned in plasmid pSpCas9(BB)-2A-GFP (PX458). pSpCas9(BB)-2A-GFP (PX458) was a gift from Feng Zhang (Addgene plasmid # 48138; http://n2t.net/addgene:48138; RRID: Addgene_48138). HEK293A cells were transfected with plasmids pX458-TDP1-gRNA1 and pX458-TDP1-gRNA2 (0.25 µg of each) using Lipofectamine 3000 Reagent (Thermofisher Scientific, Waltham, MA, USA). Growth medium contained DMEM/F12 (Thermofisher Scientific, Waltham, MA, USA) 1:1, 10% FBS (Thermofisher Scientific, Waltham, MA, USA), 100 U/mL penicillin–streptomycin (Thermofisher Scientific, Waltham, MA, USA), and 1 × GlutaMAX (Thermofisher Scientific, Waltham, MA, USA). […] Single cell clones grew for two weeks, and genome DNA was analyzed on CRISPR/Cas9-mediated deletions in TDP1 gene by PCR amplification of target region with primers: TDP1-scF 5′-[…]-3′ and TDP1-scR 5′-[…]-3′. […]
Cytotoxicity of the compounds was examined against human cell lines HEK293A (human embryonic kidney)—WT and TDP1-deficient (Tdp1-/-), and HeLa (cervical cancer) using an EZ4U colorimetric tests (Biomedica, Vienna, Austria) or xCELLigence DP Real-Time Cell Analyzer (ACEA Biosciences, Santa Clara, CA, USA). […] After formation of a 30–50% monolayer, tested compounds were added to the medium, and the cell culture was monitored for 3 days. […]
In our previous work, the cytotoxic effect of Tpc and the TDP1 inhibitors, monoterpene 3-carene derivatives, was established; both were measured separately and jointly using a panel of HEK293FT TDP1 knockout isogenic clones. […] No cleavage activity was detected in the clones’ C6, G6, and F7 cell extracts in contrast to control WT and purified TDP1. […]

Krebs 2 ascites tumors = system: Krebs 2 ascites tumors; parameters: method as in PMID 33871444; details: Krebs 2 ascites tumors in mice; cited from earlier work
TDP1 = target: T1, TDP1 (Homo sapiens, UniProt Q9NUW8); experiment: Real-time fluorescence detection of TDP1 activity (FAM/BHQ1 oligonucleotide biosensor); type: biochemical; details: as repeated in Table S1; read-out: IC50
T1 construct: made in house; host or cells: E. coli
T1 sequence (Q9NUW8 whole entry): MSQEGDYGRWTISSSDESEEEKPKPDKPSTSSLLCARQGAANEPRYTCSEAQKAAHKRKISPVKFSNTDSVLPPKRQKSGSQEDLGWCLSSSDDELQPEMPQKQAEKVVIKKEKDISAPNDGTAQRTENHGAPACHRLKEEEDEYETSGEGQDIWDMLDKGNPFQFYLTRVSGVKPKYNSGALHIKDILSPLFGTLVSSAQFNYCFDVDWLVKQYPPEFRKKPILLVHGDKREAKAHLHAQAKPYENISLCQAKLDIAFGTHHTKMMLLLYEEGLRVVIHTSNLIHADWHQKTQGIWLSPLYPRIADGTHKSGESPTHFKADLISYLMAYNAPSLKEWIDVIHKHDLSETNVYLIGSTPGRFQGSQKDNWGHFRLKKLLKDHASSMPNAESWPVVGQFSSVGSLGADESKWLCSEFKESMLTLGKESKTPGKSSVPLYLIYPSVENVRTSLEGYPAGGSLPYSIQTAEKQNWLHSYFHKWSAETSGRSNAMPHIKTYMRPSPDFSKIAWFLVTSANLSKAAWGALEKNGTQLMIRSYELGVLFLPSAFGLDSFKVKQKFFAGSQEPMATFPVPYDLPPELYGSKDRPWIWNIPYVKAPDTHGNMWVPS

HEK293A cells = experiment: Intrinsic cytotoxicity, EZ4U colorimetric test, HEK293A; type: cell-based, human; details: Figure 6
Protocol: (§1) Cytotoxicity of the compounds was examined against human cell lines HEK293A (human embryonic kidney)—WT and TDP1-deficient (Tdp1-/-), and HeLa (cervical cancer) using an EZ4U colorimetric tests (Biomedica, Vienna, Austria) or xCELLigence DP Real-Time Cell Analyzer (ACEA Biosciences, Santa Clara, CA, USA). Cell lines were obtained from the Russian Cell Culture Collection (RCCC) Institute of Cytology RAS (St. Petersburg, Russia). The cells were grown in DMEM/F12 medium (Thermo Fisher Scientific, Waltham, MA, USA), with 1× GlutaMAX (Thermo Fisher Scientific, Waltham, MA, USA), 50 IU/mL penicillin, and 50 μg/mL streptomycin (Thermo Fisher Scientific, Waltham, MA, USA), and in the presence of 10% fetal bovine serum (Biolot, Saint-Petersburg, Russia) in 5% CO2 atmosphere. Control cells were grown in the presence of 1% DMSO where indicated. After formation of a 30–50% monolayer, tested compounds were added to the medium, and the cell culture was monitored for 3 days. […] The measurements were carried out in three parallel experiments.
(§2) The intrinsic cytotoxicity of the four lead compounds (11a–d) was examined using a colorimetric test (Figure 6).

HeLa cells [1] = experiment: Intrinsic cytotoxicity, EZ4U colorimetric test, HeLa; type: cell-based, human; details: Figure 6
Protocol: as §1, §2

HEK293A WT cells [2] = experiment: xCELLigence impedance-based real-time cell growth assay, alone or with Tpc; parameters: species or system human; details: for effect on cell growth with Tpc, compared to Tpc: 50 nM Tpc + 5, 10, 20 or 40 µM compound; for toxicity of compound alone (in words): 40 µM compound
Protocol: as §1
This stimulation was also confirmed for HEK293A WT cells using the xCELLigence DP Real-Time Cell Analyzer impedance-based assay (Figure 9). […] The stimulation effect depends on the concentration of compounds 11a and 11c (Figure 9B,C).
(A). Cell growth of HEK293A cells in the control wells without compounds added (black), with 50 nM Tpc (red), 40 µM 11a (dark green), or 40 µ M 11c (violet). (B,C) Cell growth of HEK293A cells with 50 nM Tpc only (red) and in combination with 5 µM (green), 10 µM (dark blue), 20 µM (pink), or 40 µM (blue) 11a (B) or 11c (C).

HEK293A WT cells [3] = experiment: Topotecan cytotoxicity in combination with TDP1 inhibitors, colorimetric test, HEK293A WT; type: cell-based, human
Protocol: as §1
There was no difference between WT and the mutant cells.

HeLa cells [4] = experiment: Topotecan cytotoxicity in combination with TDP1 inhibitors, colorimetric test, HeLa; type: cell-based, human
Protocol: as §1
The combination index (CI) values were determined for different concentrations of Tpc and the enamines 11a–d at 2 and 5 μM. […] The CI values were calculated with the CompuSyn version 1.0 software. The CI plot at different fraction-affected (Fa) was determined for Tpc (0.3, 0.5, 1, 2, and 4 μM) and the Tdp1 inhibitors (2 and 5 μM).

Row | IC50 (TDP1) [µM] | Structure (SMILES) | antimetastatic activity (Lewis lung carcinoma) | sensitivity of TDP1-/- cells to Tpc compared to WT (HEK293A TDP1-/- cells; HEK293A clones C6, G6, F7 vs WT, colorimetric test) | antitumor effect, given separately (Krebs 2 ascites tumors) | effect on cell growth in combination with Tpc, compared to Tpc (in words) (HEK293A TDP1-/- cells) | intrinsic cytotoxicity (in words) (HEK293A cells) | intrinsic cytotoxicity (in words) (HeLa cells [1]) | effect on cell growth with Tpc, compared to Tpc (HEK293A WT cells [2]) | toxicity of compound alone (in words) (HEK293A WT cells [2]) | effect on Tpc cytotoxicity / cell growth, compared to Tpc (in words) (HEK293A WT cells [3]) | effect on Tpc cytotoxicity (in words) (HeLa cells [4])
1 | – | CC(=O)c1c(O)c(C)c(O)c2c1OC1=CC(=O)/C(=C(/C)NCCCc3cc(C(C)(C)C)c(O)c(C(C)(C)C)c3)C(=O)[C@@]12C [5b] | strong antimetastatic activity | – | – | – | – | – | – | – | – | –
2 | – | CC[C@@]1(O)C(=O)OCc2c1cc1n(c2=O)Cc2cc3c(CN(C)C)c(O)ccc3nc2-1 [Tpc, topotecan, reference compound] | – | more sensitive to Tpc compared to WT | antitumor effect | – | – | – | – | – | – | –
3 | 0.32 | CC(=O)c1c(O)c(C)c(O)c2c1OC1=CC(=O)/C(=C(/C)NCCC3=CC[C@H]4C[C@@H]3C4(C)C)C(=O)[C@@]12C [11c, (2R,4E)-10-Acetyl-4-[1-({2-[(1R,5S)-6,6-dimethylbicyclo[3.1.1]hept-2-en-2-yl]ethyl}amino)ethylidene]-11,13-dihydroxy-2,12-dimethyl-8-oxatricyclo[7.4.0.0^2,7]trideca-1(13),6,9,11-tetraene-3,5-dione] | – | – | – | stimulation of cell growth | non-cytotoxic | non-cytotoxic | stimulated cell growth | non-toxic | reduced it; also recorded: stimulation of cell growth; also recorded: stimulated cell growth | enhanced topotecan’s cytotoxicity; also recorded: synergistic effect; also recorded: enhanced Tpc cytotoxicity
4 | 0.4 | CC(=O)c1c(O)c(C)c(O)c2c1OC1=CC(=O)/C(=C(/C)NCC[C@@H](C)CCC=C(C)C)C(=O)[C@@]12C [11a, (2R,4E)-10-Acetyl-4-(1-{[(3S)-3,7-dimethyloct-6-en-1-yl]amino}ethylidene)-11,13-dihydroxy-2,12-dimethyl-8-oxatricyclo[7.4.0.0^2,7]trideca-1(13),6,9,11-tetraene-3,5-dione] | – | – | – | stimulation of cell growth | non-cytotoxic | non-cytotoxic | stimulated cell growth | modestly toxic | reduced it; also recorded: stimulation of cell growth; also recorded: stimulated cell growth | enhanced topotecan’s cytotoxicity; also recorded: synergistic effect; also recorded: enhanced Tpc cytotoxicity
